Data on 9 molecules can be found in patent publication US3984415A, “1-Nitrophenylpyrido [2,3-d] pyrimidine-2,4(1H,3H)-diones” (Hisamitsu Pharmaceutical Co., Inc., priority 1973, dated 1976).

Read-outs that look alike come from different tables or passages of the source. A value given as a limit tells only on which side of the number the result lay.

Data set [1] is described as follows: Anti-inflammatory effect (carrageenin edema of hind paw). Format: in vivo, Wistar-strain male rats. More on the design: anti-inflammatory effect (inhibition percentage of carrageenin edema): scale not given here. Particulars: orally, rats, 3 hours. As to the method: 2. Anti-inflammatory effect
A group of five Wistar-strain male rats (100-150 g) were orally administered with each test compound suspended in 0.5 % tragacanth-saline solution. After 30 minutes 0.5 %-1.0 % carrageenin suspended in the water for injection was injected subcutaneously to a hind paw. After 3 hours the carrageenin edema was measured by volume and the inhibition percentage was determined with respect to the results for the control animals. The inhibition percentages were shown with the notations as follows: […]

A short description of data set [2]: Analgetic effect (acetic acid writhing syndrome). The class given is in vivo, dd-strain male mice. Particulars: orally, mice; for ED50: Mus musculus, po, acetic acid writhing. Here is the method: Each test compound suspended in 0.5 % tragacanth-saline solution was orally administered to dd-strain male mice (18-20 g). After one hour 0.6% acetic acid solution was intraperitoneally injected in a volume of 0.1 ml/10 g.

The next data set has as its system dd-strain male mice. The settings on record: 72 hours. Here is the method: The lethal dose was estimated from the death of animals 72 hours after administration.
Data set [3] in a line: Analgetic effect (acetic acid writhing syndrome). Format: in vivo, dd-strain male mice. Particulars: Mus musculus, ip, mice.
Setting [4] is: Rattus norvegicus, po, read-out: anti-inflammatory effect (inhibition percentage of carrageenin edema).
Where [5] appears, read: Rattus norvegicus, po, dose 50 mg/kg, read-out: anti-inflammatory effect (inhibition percentage of carrageenin edema).

Regarding `CCOC(=O)Cn1c(=O)c2cccnc2n(-c2cccc([N+](=O)[O-])c2)c1=O` [Compound 27], in data set [1] (setting [4]), the inhibition in vivo at 10 mg/kg is 31 to 45% and the inhibition in vivo at 100 mg/kg was 46 to 60%. Further, the inhibition in vivo at 20 mg/kg in data set [1] (Rattus norvegicus, po, dose 20 mg/kg, read-out: anti-inflammatory effect (inhibition percentage of carrageenin edema)) was 31 to 45%. In data set [1] (setting [5]), the inhibition in vivo at 50 mg/kg fell in the range of 46 to 60%. In data set [2], this molecule returned an ED50 of 45 mg/kg. In the data set with dd-strain male mice (i.p.), the “acute toxicity (lethal dose)” value was found to be 1000 mg/kg. Moreover, the “acute toxicity (lethal dose)” value with dd-strain male mice (p.o.) was > 2000 mg/kg.

`O=c1c2cccnc2n(-c2cccc([N+](=O)[O-])c2)c(=O)n1CCc1ccccc1` [Compound 31]: the inhibition in vivo at 100 mg/kg in data set [1] (setting [4]) was < 15%. In data set [2], the 50% effective dose (ED50) is > 100 mg/kg. In addition, the “acute toxicity (lethal dose)” value was > 1000 mg/kg in the data set with dd-strain male mice (i.p.) and > 2000 mg/kg in the data set on dd-strain male mice (p.o.).

For the molecule `Cn1c(=O)c2cccnc2n(-c2cccc([N+](=O)[O-])c2)c1=S` [Compound 33, 1-(m-nitrophenyl)-3-methyl-2-thio-4-oxo-1,2,3,4-tetrahydropyrido[2,3-d]pyrimidine], the inhibition in vivo at 10 mg/kg in data set [1] (setting [4]) was 46 to 60%. Further, the “anti-inflammatory effect (inhibition percentage of carrageenin edema)” value in data set [1] (dose 50 mg/kg) was “+ ++”. Moreover, in data set [2] (only the 95% confidential limits are printed), the “analgetic effect ED50, 95% C.L.” value fell in the range of 0.23 to 1.55 mg/kg. In addition, the “acute toxicity (lethal dose)” value with dd-strain male mice (i.p.) is given as > 1000 mg/kg; with dd-strain male mice (p.o.), > 2000 mg/kg.

`CCn1c(=O)c2cccnc2n(-c2cccc([N+](=O)[O-])c2)c1=S` [Compound 34]: in data set [1] (setting [4]), the inhibition in vivo at 10 mg/kg is 46 to 60%. The inhibition in vivo at 50 mg/kg in data set [1] (setting [5]) lay within 46 to 60%. In data set [2], the ED50 is ~0.2 mg/kg. In addition, the figures for the “acute toxicity (lethal dose)” value in the data set on dd-strain male mice (i.p.) and in the data set with dd-strain male mice (p.o.) were > 1000 mg/kg and > 2000 mg/kg, respectively.

For `CCCn1c(=O)c2cccnc2n(-c2cccc([N+](=O)[O-])c2)c1=S` [Compound 35], in data set [1] (setting [4]), the inhibition in vivo at 10 mg/kg lay in the range of 16 to 30%. Further, the inhibition in vivo at 50 mg/kg in data set [1] (setting [5]) lay in the range of 16 to 30%. For the same molecule, in data set [2], the ED50 was ~1000 mg/kg. Also, the figures for the “acute toxicity (lethal dose)” value with dd-strain male mice (i.p.) and with dd-strain male mice (p.o.) were > 1000 mg/kg and > 2000 mg/kg, respectively.

For `O=c1c2cccnc2n(-c2cccc([N+](=O)[O-])c2)c(=S)n1CC(F)(F)F` [Compound 39], the inhibition in vivo at 10 mg/kg in data set [1] (setting [4]) is > 61%. For the same molecule, in data set [1] (setting [5]), the inhibition in vivo at 50 mg/kg lay within 46 to 60%. Further, the 50% effect level in data set [2] (ED50) was put at a dose of 0.23 mg/kg. The “acute toxicity (lethal dose)” value in the data set with dd-strain male mice (i.p.) is on record as > 1000 mg/kg; in the data set on dd-strain male mice (p.o.), > 2000 mg/kg.

With `O=C(Cn1c(=O)c2cccnc2n(-c2cccc([N+](=O)[O-])c2)c1=O)c1ccc(Cl)cc1` [O --CH2 CO], in data set [1] (setting [4]), the inhibition in vivo at 100 mg/kg was < 15%. Moreover, the 50% effective dose (ED50) in data set [2] is > 100 mg/kg. Moreover, the “acute toxicity (lethal dose)” value was > 1000 mg/kg in the data set with dd-strain male mice (i.p.) and > 2000 mg/kg with dd-strain male mice (p.o.).

For the molecule `Cc1c(N(C)C)c(=O)n(-c2ccccc2)n1C` [aminopyrine, reference compound], the inhibition in vivo at 10 mg/kg in data set [1] (setting [4]) is < 15%. The inhibition in vivo at 50 mg/kg in data set [1] (setting [5]) is < 15%. Besides, the “acute toxicity (lethal dose)” value with dd-strain male mice (i.p.) is 100 to 300 mg/kg. The molecule also had an ED50 in data set [3] of 56 mg/kg.

`O=C(O)c1ccccc1Nc1cccc(C(F)(F)F)c1` [flufenamic acid, reference compound]: the inhibition in vivo at 10 mg/kg in data set [1] (setting [4]) is < 15%. Besides, the inhibition in vivo at 50 mg/kg in data set [1] (setting [5]) was 16 to 30%. The same molecule had an ED50 in data set [2] of 180 mg/kg. Also, the “acute toxicity (lethal dose)” value with dd-strain male mice (i.p.) was in the range of 300 to 1000 mg/kg.

As usually defined, the ED50 is the midpoint of the dose-response relation.
